Assays:
[1] = system: MCF7; assay: Antiproliferative activity against human MCF7 cells after 48 hrs by CCK-8 assay; conditions: MCF7, 48 h
[2] = molecular target: T1, Protein deacetylase HDAC6 (Homo sapiens, UniProt Q9UBN7); assay: Inhibition of HDAC6 (unknown origin) preincubated for 10 mins followed by Ac-Leu-GlyLys(Ac)-AMC substrate addition measured after 30 mins by fluorescence based assay
T1 sequence (Q9UBN7 whole entry): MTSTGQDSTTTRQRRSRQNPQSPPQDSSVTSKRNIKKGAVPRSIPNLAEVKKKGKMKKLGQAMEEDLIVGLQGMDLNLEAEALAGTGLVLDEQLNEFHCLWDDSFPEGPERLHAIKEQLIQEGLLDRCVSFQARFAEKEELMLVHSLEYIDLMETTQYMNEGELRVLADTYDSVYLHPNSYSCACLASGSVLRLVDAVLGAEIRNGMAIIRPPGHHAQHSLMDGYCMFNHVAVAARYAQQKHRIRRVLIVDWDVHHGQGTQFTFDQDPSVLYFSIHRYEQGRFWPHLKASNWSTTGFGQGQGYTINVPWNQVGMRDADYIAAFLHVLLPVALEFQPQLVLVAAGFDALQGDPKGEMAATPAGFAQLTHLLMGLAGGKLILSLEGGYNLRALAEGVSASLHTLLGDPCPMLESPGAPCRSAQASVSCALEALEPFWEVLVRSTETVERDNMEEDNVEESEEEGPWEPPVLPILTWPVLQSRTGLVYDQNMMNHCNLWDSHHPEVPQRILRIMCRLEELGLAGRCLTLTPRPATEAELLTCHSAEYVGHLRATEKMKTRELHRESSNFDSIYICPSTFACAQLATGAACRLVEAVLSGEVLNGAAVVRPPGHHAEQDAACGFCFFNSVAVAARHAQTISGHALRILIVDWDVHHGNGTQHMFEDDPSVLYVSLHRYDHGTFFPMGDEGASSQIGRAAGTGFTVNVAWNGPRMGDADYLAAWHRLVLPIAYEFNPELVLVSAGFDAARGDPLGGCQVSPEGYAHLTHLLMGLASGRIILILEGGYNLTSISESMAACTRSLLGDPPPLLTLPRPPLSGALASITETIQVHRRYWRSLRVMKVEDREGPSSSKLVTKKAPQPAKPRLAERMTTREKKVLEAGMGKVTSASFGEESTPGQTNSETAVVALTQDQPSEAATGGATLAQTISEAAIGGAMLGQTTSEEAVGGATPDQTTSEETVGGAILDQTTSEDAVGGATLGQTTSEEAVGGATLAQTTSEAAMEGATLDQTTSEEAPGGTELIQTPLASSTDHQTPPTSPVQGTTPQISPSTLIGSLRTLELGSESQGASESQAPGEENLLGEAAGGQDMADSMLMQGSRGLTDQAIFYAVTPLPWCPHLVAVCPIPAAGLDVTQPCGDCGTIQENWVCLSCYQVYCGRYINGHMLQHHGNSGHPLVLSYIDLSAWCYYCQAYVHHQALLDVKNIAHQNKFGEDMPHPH

IC50 [1] [µM]	IC50 [2] [nM]	Structure (SMILES)
> 100	293	O=C(NO)c1ccc(C(=O)Nc2n[nH]c3cc(-c4cc(Cl)cc(Cl)c4)ccc23)cc1
> 100	58	COc1cccc(-c2ccc3c(NC(=O)c4ccc(C(=O)NO)cc4)n[nH]c3c2)c1F
> 100	281	O=C(NO)c1ccc(C(=O)Nc2n[nH]c3cc(-c4ccc(Cl)cc4)ccc23)cc1
> 100	69	O=C(NO)c1ccc(C(=O)Nc2n[nH]c3cc(-c4cccc(Cl)c4)ccc23)cc1
> 100	385	O=C(NO)c1ccc(C(=O)Nc2n[nH]c3cc(-c4c(Cl)cccc4Cl)ccc23)cc1
23	59	O=C(NO)c1ccc(C(=O)Nc2n[nH]c3cc(-c4ccccc4Cl)ccc23)cc1
> 100	157	O=C(NO)c1ccc(C(=O)Nc2n[nH]c3cc(-c4cccc(Cl)c4Cl)ccc23)cc1
28	40	COc1ccccc1-c1ccc2c(NC(=O)c3ccc(C(=O)NO)cc3)n[nH]c2c1
> 100	98	O=C(NO)c1ccc(C(=O)Nc2n[nH]c3cc(-c4ccc(Cl)c(F)c4)ccc23)cc1
> 100	147	O=C(NO)c1ccc(C(=O)Nc2n[nH]c3cc(-c4ccc(Cl)c(Cl)c4)ccc23)cc1
45	65	O=C(NO)c1ccc(C(=O)Nc2n[nH]c3cc(-c4ccccc4F)ccc23)cc1
> 100	178	O=C(NO)c1ccc(C(=O)Nc2n[nH]c3cc(-c4cc(Cl)ccc4Cl)ccc23)cc1

Continued, molecule first:

Structure (SMILES)	IC50 [1] [µM]	IC50 [2] [nM]
COc1ccc(-c2ccc3c(NC(=O)c4ccc(C(=O)NO)cc4)n[nH]c3c2)cc1OC	15.2	33
O=C(NO)c1ccc(C(=O)Nc2n[nH]c3cc(-c4cccc(OC(F)(F)F)c4)ccc23)cc1	> 100	218
CCCOc1cccc(-c2ccc3c(NC(=O)c4ccc(C(=O)NO)cc4)n[nH]c3c2)c1	> 100	345
CC(C)Oc1cccc(-c2ccc3c(NC(=O)c4ccc(C(=O)NO)cc4)n[nH]c3c2)c1	> 100	78
Cc1cc(C)cc(-c2ccc3c(NC(=O)c4ccc(C(=O)NO)cc4)n[nH]c3c2)c1	> 100	250
O=C(NO)c1ccc(C(=O)Nc2n[nH]c3cc(-c4ccc(C(F)(F)F)cc4)ccc23)cc1	> 100	103
CCCCN(Cc1ccc(C(=O)NO)cc1)C(=O)Nc1ccccc1 [NEXTURASTAT A]	1.4	–
CCOc1cccc(-c2ccc3c(NC(=O)c4ccc(C(=O)NO)cc4)n[nH]c3c2)c1	9	34
COc1ccc(-c2ccc3c(NC(=O)c4ccc(C(=O)NO)cc4)n[nH]c3c2)cc1	22	41
CCN1CCN(c2ccc(C(=O)Nc3n[nH]c4cc(-c5cccc(OC)c5F)ccc34)cc2)CC1	0.0405	–
COc1cccc(-c2ccc3c(NC(=O)c4ccc(C(=O)NO)cc4)n[nH]c3c2)c1	> 100	132
O=C(NO)c1ccc(C(=O)Nc2n[nH]c3cc(-c4ccccc4)ccc23)cc1	> 100	38
COc1ccc(F)cc1-c1ccc2c(NC(=O)c3ccc(C(=O)NO)cc3)n[nH]c2c1	> 100	64
COc1cc(OC)cc(-c2ccc3c(NC(=O)c4ccc(C(=O)NO)cc4)n[nH]c3c2)c1	> 100	242

From ChEMBL document CHEMBL4184206, “Design, synthesis and evaluate of novel dual FGFR1 and HDAC inhibitors bearing an indazole scaffold” (Bioorg Med Chem, 2018)
